Reference: publication PMC6013238, “Development of novel NEMO-binding domain mimetics for inhibiting IKK/NF-κB activation” (PLoS Biology, 2018)
Several values for one entry are separate records, joined by “and”; a condition that tells them apart may be missing. Equal entries are not always repeated.

System: mdx mice
Assay: Chronic treatment of mdx mice, qRT-PCR of eMyHC and Pax7 in TA muscle
Assay type: in vivo, mouse
Conditions: Fig 7D, SR 30 mg/kg, 8K-NBD 10 mg/kg, 4 wk, single mice
Description: Fig 7 NBD mimetics improve muscular pathology and grip strength in mdx mice. (A) Shown is the treatment regimen with NBD mimetics in mdx mice. (B) Hematoxylin–eosin staining of TA muscle from 7-wk-old, treated or untreated mdx mice. Images were taken at magnification of 20×. Representative images were shown for each treatment group. […] (E) TA muscle from 7-wk-old, treated or untreated mdx mice was stained with laminin by IHC to outline myofibers. Overall images of TA muscle were shown on the left side, and the inset panel images were shown on the right side. (F) Quantitation of minimum Feret diameter in centrally and noncentrally nucleated myofibers. (G) Forelimb force determined by grip strength test. […] Underlying data can be found in S1 Data. eMyHC, embryonic myosin heavy chain; IHC, immunohistochemistry; NBD, NEMO-binding domain; NEMO, NF-κB essential modulator; Pax7, paired box protein 7; qRT-PCR, quantitative real-time polymerase chain reaction; TA, tibialis anterior.
To determine whether SR12343 and SR12460 improve muscle pathology, TA muscle was stained with hematoxylin–eosin to assess inflammatory infiltration, necrosis, central nucleation, and fibrosis. […] To further quantitate the extent of inflammation in mdx muscle tissues, diaphragm and TA muscle were immunostained for cluster of differentiation 68 (CD68), a macrophage marker. […]

Compound: O=C(CNc1ccc(Cl)cn1)NCCc1cccc(Br)c1 [SR12343]
- Pax7 mRNA in TA muscle (qRT-PCR): 1.512 and 1.485 and 1.5466 and 1.253 and 1.1889 and 1.394
